Laboratory results taken from patent US9700052B2, “Methods and compositions comprising steroid honey bee feeding inhibitors” (Iowa State University Research Foundation, Inc., priority 2015, dated 2017).

Tested on: honey bees, Apis mellifera
Assay: Artificial styrofoam flower foraging assay with 20% sucrose nectar tube
Type: in vivo
Details: for Consumed, ml (nectar) / # feeding: n = 4
Experimental: To determine how the phytoecdysteroid inhibits bee foraging, we utilized artificial flowers so that the compounds can be added to a nectar source or sprayed on the surface of the artificial flower. The artificial flowers were made from green florist styrofoam blocks (12 cm^2) and petals made from blue and green tape. In the center of the styrofoam block a 2 ml test tube was inserted that contained a 20% sucrose solution in water as a substitute for nectar. The same array of holders was used as in the previous study (FIG. 2).
To determine if the repellent activity occurs in a concentration dependent manner we utilized the artificial flowers treated with various concentrations of the steroids in the nectar tube. In addition to observing the number of honey bees feeding from the nectar tube we measured the amount of nectar consumed after the observation period of about 45 min. The purified phytoecdysteroid was effective at 2.5 and 0.4 mg/ml in reducing the number of honey bees feeding on the nectar compared to lower concentrations. […] The pure 20-OH-ecdysone was also inhibitory at 1 mg/ml and 0.2 mg/ml with more foraging at the lower concentration. Cucurbitacin B was inhibitory at 0.5 mg/ml but not at 0.1 mg/ml.

[1] = 0.01 mg/ml in 2 ml nectar tube, about 45 min
[2] = 0.01 mg/ml in nectar tube, about 45 min
[3] = 0.1 mg/ml in 2 ml nectar tube, about 45 min
[4] = 0.1 mg/ml in nectar tube, about 45 min

## CC(C)(O)CC[C@@H](O)[C@](C)(O)[C@H]1CC[C@@]2(O)C3=CC(=O)[C@@H]4C[C@@H](O)[C@@H](O)C[C@]4(C)[C@H]3CC[C@]12C [20-hydroxyecdysone]
[1]
  Consumed, ml (nectar): 1.1 mL
[2]
  # feeding: 37
[3]
  Consumed, ml (nectar): 1.7 mL
[4]
  # feeding: 56
0.2 mg/ml in 2 ml nectar tube, about 45 min
  Consumed, ml (nectar): 0.25 mL
0.2 mg/ml in nectar tube
  inhibition of honey bees feeding on the nectar: inhibitory
0.2 mg/ml in nectar tube, about 45 min
  # feeding: 17
1 mg/ml in 2 ml nectar tube, about 45 min
  Consumed, ml (nectar): 0.05 mL
1 mg/ml in nectar tube
  inhibition of honey bees feeding on the nectar: inhibitory
1 mg/ml in nectar tube, about 45 min
  # feeding: 2

## CC(=O)OC(C)(C)/C=C/C(=O)[C@](C)(O)[C@H]1C(O)C[C@@]2(C)[C@@H]3CC=C4[C@H](CC(O)C(=O)C4(C)C)[C@@]3(C)C(=O)C[C@]12C (stereo partly drawn) [Cucurbitacin B]
[1]
  Consumed, ml (nectar): 1.9 mL
[2]
  # feeding: 4
[3]
  Consumed, ml (nectar): 1.2 mL
0.1 mg/ml in nectar tube
  inhibition of honey bees feeding on the nectar: not
[4]
  # feeding: 3
0.5 mg/ml in 2 ml nectar tube, about 45 min
  Consumed, ml (nectar): 0.3 mL
0.5 mg/ml in nectar tube
  inhibition of honey bees feeding on the nectar: inhibitory
0.5 mg/ml in nectar tube, about 45 min
  # feeding: 8

## C[C@H]([C@H](O)CCC(C)(C)O)[C@H]1CC[C@@]2(O)C3=CC(=O)[C@@H]4C[C@@H](O)[C@@H](O)C[C@]4(C)[C@H]3CC[C@]12C [Pure ecdsyone, ecdysone]
0.01 mg/ml in nectar tube
  inhibition of honey bees feeding on the nectar: not
0.1 mg/ml in nectar tube
  inhibition of honey bees feeding on the nectar: inhibitory
1 mg/ml in nectar tube
  inhibition of honey bees feeding on the nectar: inhibitory
Table 5, 0.01 mg/ml in 2 ml nectar tube
  Consumed, ml (nectar): 0.8 mL
Table 5, 0.01 mg/ml in nectar tube
  # feeding: 24
Table 5, 0.1 mg/ml in 2 ml nectar tube
  Consumed, ml (nectar): 0.3 mL
Table 5, 0.1 mg/ml in nectar tube
  # feeding: 0
Table 5, 1 mg/ml in 2 ml nectar tube
  Consumed, ml (nectar): 0.2 mL
Table 5, 1 mg/ml in nectar tube
  # feeding: 0
